Experimental data taken from patent US20120270819A1, “USE OF COMPOUNDS WITH SGLT-1/SGLT-2 INHIBITOR ACTIVITY FOR PRODUCING MEDICAMENTS FOR TREATMENT OF BONE DISEASE” (SANOFI, priority 2009, published 2012).

Molecular target: T1, human sodium-dependent glucose transporter 1 (SGLT1, SLC5A1) (Homo sapiens, UniProt P13866)
T1 construct: Bases 11 to 2005 correspond to the complete coding region of human SGLT1; expressed in transfected cells; host or cells: CHO-TRex cells (Invitrogen), pcDNA4/TO vector, tetracycline-induced
T1 sequence (P13866 1-664): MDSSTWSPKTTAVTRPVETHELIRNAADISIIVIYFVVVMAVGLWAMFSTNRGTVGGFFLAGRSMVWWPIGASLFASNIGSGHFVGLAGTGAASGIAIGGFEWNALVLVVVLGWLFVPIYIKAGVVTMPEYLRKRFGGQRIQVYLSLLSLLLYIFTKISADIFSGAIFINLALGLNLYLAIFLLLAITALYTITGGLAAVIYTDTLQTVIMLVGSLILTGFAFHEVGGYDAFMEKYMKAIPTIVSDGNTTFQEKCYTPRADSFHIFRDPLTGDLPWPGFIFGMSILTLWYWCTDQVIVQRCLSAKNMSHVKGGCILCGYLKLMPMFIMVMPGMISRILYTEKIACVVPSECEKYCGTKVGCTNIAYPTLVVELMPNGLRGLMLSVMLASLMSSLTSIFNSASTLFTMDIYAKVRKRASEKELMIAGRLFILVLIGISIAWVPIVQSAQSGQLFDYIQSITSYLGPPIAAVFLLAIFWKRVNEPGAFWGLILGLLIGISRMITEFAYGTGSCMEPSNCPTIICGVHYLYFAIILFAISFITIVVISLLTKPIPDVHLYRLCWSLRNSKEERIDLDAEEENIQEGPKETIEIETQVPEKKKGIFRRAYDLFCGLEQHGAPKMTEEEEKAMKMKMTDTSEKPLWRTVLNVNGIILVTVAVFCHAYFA
Assay: Inhibition of methyl α-D-glucopyranoside uptake in CHO-TRex-hSGLT1 cells
Format: cell-based
Conditions: recombinant SGLT1; read-out: IC50 SGLT 1
Text: A further method for testing the activity of the compounds is the inhibition of the transport activity of the human sodium-dependent glucose transporter 1 (SGLT1, SLC5A1) in vitro:
1. Cloning of an Expression Vector for Human SGLT1
The cDNA for human SGLT1 was introduced into the pcDNA4/TO vector (Invitrogen) by standard methods of molecular biology as described in Sambrook et al. (Sambrook et al., Molecular Cloning, A Laboratory Manual, 2nd Edition). […] Bases 11 to 2005 correspond to the complete coding region of human SGLT1.
2. Preparation of a Recombinant Cell Line with Inducible Expression of Human SGLT1
The expression vector for human SGLT1 was introduced into CHO-TRex cells (Invitrogen) by means of FuGene6 lipofection (Roche). To select single cell clones, 600 μg/ml Zeocin (Invitrogen) was added to the cell culture medium (Nutrient Mixture F-12 (Ham), (Invitrogen) supplemented with 10% fetal calf serum (BD Biosciences), 10 μg/ml blasticidin S(CN Biosciences), 100 units/ml penicillin, 100 units/ml streptomycin). The functionality of the single cell clones resulting from the selection was tested via their uptake activity for radiolabeled methyl α-D-glucopyranoside. The cell clone with the greatest uptake activity for methyl α-D-glucopyranoside, referred to as CHO-TRex-hSGLT1 hereinafter, was selected for further experiment, and cultivation was continued in the presence of 600 μg/ml of zeocin.
3. Measurement of the Inhibitory Effect of Test Substances on the Uptake of Methyl-D-qlucopyranoside (-MDG)
CHO-TRex-hSGLT1 cells were seeded in a concentration of 50 000 cells per well in Cytostar-T scintillating 96-well plates (Amersham Biosciences) in cell culture medium and cultivated for 24 h. Expression of the recombinant human SGLT1 was induced by adding 1 μg/ml tetracyclin for a further 24 h. For α-MDG uptake experiments, the cells were washed with PBS and then starved (PBS supplemented with 10% fetal calf serum) at 37° C. for one hour. […]
The final concentration of methyl α-D-glucopyranoside in the assay was 50 μM. After an incubation time of 30 min at room temperature, the reaction was stopped by adding 50 μl/well of 10 mM methyl α-D-glucopyranoside in transport assay buffer (4° C.), and the radioactivity uptake by the cells was determined in a MicroBeta Scintillation Microplate Reader (Wallac). The half-maximum inhibitory effect of the test substances (IC50) was determined in the following way: • 1. […] This is the measurement in the absence of substance, measured in sodium-containing transport assay buffer. • 2. […] This is the measurement in the absence of substance, measured in sodium-free transport assay buffer (140 mM choline chloride, 2 mM potassium chloride, 1 mM magnesium chloride, 1 mM calcium chloride, 10 mM HEPES/Tris, pH7.5). • 3. […]

IC50 [µM] | Compound
0.77 | COc1ccc(Cc2ccccc2OC2OC(CO)C(F)C(O)C2O)cc1 (stereo not shown) [Example 1 of formula III]
0.027 | CC(C)c1[nH]nc(OC2OC(CO)C(F)C(O)C2O)c1Cc1ccc(CCCC(=O)NC(CO)(CO)CO)cc1 (stereo not shown) [Example 21 of formula I]
0.029 | COc1ccc(Cc2c(OC3OC(CO)C(F)C(O)C3O)n[nH]c2C(F)(F)F)cc1 (stereo not shown) [Example 5 of formula II]
0.32 | CCc1ccc(Cc2ccccc2OC2OC(CO)C(F)C(O)C2O)cc1 (stereo not shown) [Example 20 of formula III]
